Results reported in ChEMBL document CHEMBL2157951, “Polysulfated xanthones: multipathway development of a new generation of dual anticoagulant/antiplatelet agents” (J Med Chem, 2011).
Active and inactive are the calls of the source. No cut-off for these calls is given here.

Columns and labels:
[1] = Stability in RPMI medium at 37 degC assessed as compound degradation incubated for 24 hrs; type: physicochemical
[2] = biological target: Vitamin K-dependent protein C (Homo sapiens) (UniProt P04070); experiment: Inhibition of activated protein C in citreated human plasma using CBS 42.46 as substrate at 2 x 10^-3 M by chromogenic assay
[3] = biological target: Coagulation factor X/antithrombin III (Homo sapiens) (UniProt P01008+P00742); experiment: Inhibition of human factor 10a/antithrombin 3 assessed as CBS 31.39 substrate hydrolysis at 1 x 10^-3 M by spectrophotometric analysis; type: protein-complex assay
[4] = biological target: Prothrombin (Homo sapiens) (UniProt P00734); experiment: Inhibition of human thrombin assessed as chromozym TH substrate hydrolysis at 1.9 x 10^-9 by spectrophotometric analysis
[5] = test system: Plasma; experiment: Anticoagulant activity in human plasma assessed as concentration required to double the thrombin time by coagulometer analysis; type: functional
[6] = test system: Plasma; experiment: Anticoagulant activity in human plasma assessed as concentration required to double the activated partial thromboplastin time by coagulometer analysis; type: functional
[7] = test system: Plasma; experiment: Anticoagulant activity in human plasma assessed as effect on thrombin time by coagulometer analysis; type: functional, cell-free
[8] = biological target: Vitamin K-dependent protein C (Homo sapiens) (UniProt P04070); experiment: Inhibition of activated protein C in citreated human plasma using CBS 42.46 as substrate at 2.50 x 10^-4 M by chromogenic assay
[9] = biological target: T1, Coagulation factor X (Homo sapiens, UniProt P00742); experiment: Inhibition of human factor 10a assessed as CBS 31.39 substrate hydrolysis at 1 x 10^-3 M by spectrophotometric analysis
[10] = test system: Plasma; experiment: Anticoagulant activity in human plasma assessed as effect on activated partial thromboplastin time by coagulometer analysis; type: functional, cell-free
[11] = biological target: Coagulation factor X/antithrombin III (Homo sapiens, UniProt P00742+P01008); experiment: Inhibition of human factor 10a/antithrombin 3 assessed as CBS 31.39 substrate hydrolysis by spectrophotometric analysis; type: protein-complex assay
[12] = biological target: T1, Coagulation factor X; experiment: Inhibition of human factor 10a assessed as CBS 31.39 substrate hydrolysis by spectrophotometric analysis
[13] = test system: Blood; experiment: Anticoagulant activity in human whole blood assessed as period of time from initiation of the test to the initial fibrin formation at 3.12 x 10^-4 M by thromboelastography analysis in presence of intrinsic activator (reference value: 188 sec); type: functional
[14] = test system: Blood; experiment: Anticoagulant activity in human whole blood assessed as time from beginning of clot formation until the amplitude of thromboelastogram reaches 20 mm at 3.12 x 10^-4 M by thromboelastography analysis in presence of intrinsic activator (reference value: 82 sec); type: functional
[15] = test system: Blood; experiment: Anticoagulant activity in human whole blood assessed as amplitude of the clot at 10 mins at 3.12 x 10^-4 M by thromboelastography analysis in presence of intrinsic activator (reference value: 57 mm); type: functional
[16] = biological target: Prothrombin (Homo sapiens) (UniProt P00734); experiment: Inhibition of human thrombin assessed as chromozym TH substrate hydrolysis at 1 x 10^-4 to 1 x 10^-3 M by spectrophotometric analysis in presence of antithrombin-3
[17] = test system: Plasma; experiment: Anticoagulant activity in human plasma assessed as effect on prothrombin time by coagulometer analysis; type: functional, cell-free
[18] = test system: Plasma; experiment: Anticoagulant activity in human plasma assessed as concentration required to double the prothrombin time by coagulometer analysis; type: functional
[19] = test system: Blood; experiment: Anticoagulant activity in human whole blood assessed as acceleration/kinetics of fibrin buildup and cross-linking at 3.12 x 10^-4 M by thromboelastography analysis in presence of intrinsic activator (reference value: 77 degree); type: functional
[20] = test system: Plasma; experiment: Reduction of prothrombin level in citreated human plasma by measuring prothrombin clotting time after mixing with factor 2 deficient plasma
[21] = test system: Plasma; experiment: Anticoagulant activity in human plasma assessed as effect on thrombin time at 5 x 10^-3 M by coagulometer analysis; type: functional, cell-free
[22] = test system: Plasma; experiment: Anticoagulant activity in human plasma assessed as effect on prothrombin time at 5 mM by coagulometer analysis relative to untreated control; type: functional
[23] = test system: Plasma; experiment: Anticoagulant activity in human plasma assessed as effect on activated partial thromboplastin time at 5 mM by coagulometer analysis relative to untreated control; type: functional
[24] = test system: Mus musculus; experiment: Anticoagulant activity in ip dosed mouse assessed as increase of prothrombin time; type: functional, organism-based
[25] = Chemical stability of the compound in aqueous solution at 1.00 x 10^-2, 1.00 x 10^-4 and 1.00 x 10^-6 M at room temperature after 15 days by HPLC analysis; conditions: buffer, 360 h, 10 mM, 100 µM, 1 µM
[26] = test system: Mus musculus; experiment: Anticoagulant activity in mouse assessed as increase of activated partial thromboplastin time at 300 umol/kg, po; type: functional, organism-based
[27] = test system: Mus musculus; experiment: Anticoagulant activity in mouse assessed as increase of activated partial thromboplastin time at 150 and 300 umol/kg, ip measured after 120 mins; type: functional, organism-based
[28] = test system: Mus musculus; experiment: Anticoagulant activity in mouse assessed as increase of activated thrombin time at 300 umol/kg, po; type: functional, organism-based
[29] = Chemical stability of the compound in aqueous solution at 1.00 x 10^-2, 1.00 x 10^-4 and 1.00 x 10^-6 M at -20 degC after 15 days by HPLC analysis; conditions: buffer, 360 h, 10 mM, 100 µM, 1 µM
[30] = Chemical stability of the compound in sodium acetate buffer at pH 5 assessed as compound remaining at 1 x 10^-5 M after 120 mins by HPLC analysis; type: physicochemical; conditions: read-out: Stability
[31] = Chemical stability of the compound in potassium phosphate buffer at pH 6.7 assessed as compound remaining at 1 x 10^-5 M after 120 mins by HPLC analysis; type: physicochemical; conditions: read-out: Stability
[32] = test system: Mus musculus; experiment: Hepatotoxicity in mouse assessed as GPT level in plasma at 300 umol/kg, ip after 120 mins (reference value: 40 U/L); type: toxicity, organism-based; conditions: in vivo, 2 h
[33] = Chemical stability of the compound in phosphate buffered saline at pH 7.4 assessed as compound remaining at 1 x 10^-5 M after 120 mins by HPLC analysis; type: physicochemical; conditions: read-out: Stability
[34] = test system: Mus musculus; experiment: Anticoagulant activity in ip dosed mouse assessed as increase of thrombin time; type: functional, organism-based
[35] = biological target: T1, Coagulation factor X; experiment: Non-competitive inhibition of human factor 10a using CBS 31.39 as substrate hydrolysis by Michaelis-Menten equation analysis
[36] = Chemical stability of the compound in sodium boric acid at pH 9.1 assessed as compound remaining at 1 x 10^-5 M after 120 mins by HPLC analysis; type: physicochemical; conditions: sodium boric acid buffer, read-out: Stability
[37] = Chemical stability of the compound in HCl buffer at pH 1 assessed as compound remaining at 1 x 10^-5 M after 120 mins by HPLC analysis; type: physicochemical; conditions: read-out: Stability
[38] = Chemical stability of the compound in aqueous solution at 1.00 x 10^-2, 1.00 x 10^-4 and 1.00 x 10^-6 M at 4 degC after 15 days by HPLC analysis; conditions: buffer, 360 h, 10 mM, 100 µM, 1 µM
[39] = test system: Mus musculus; experiment: Hepatotoxicity in mouse assessed as GOT level in plasma at 300 umol/kg, ip after 120 mins (reference value: 108 U/L); type: toxicity, organism-based; conditions: in vivo, 2 h
[40] = Solubility of the compound in water; type: physicochemical; conditions: buffer
[41] = test system: Plasma; experiment: Metabolic stability in human plasma after 3 hrs by HPLC analysis by HPLC analysis; type: ADME, cell-free
[42] = test system: Mus musculus; experiment: Anticoagulant activity in mouse assessed as increase of prothrombin time at 150 and 300 umol/kg, ip measured after 120 mins; type: functional, organism-based
[43] = test system: Mus musculus; experiment: Anticoagulant activity in mouse assessed as increase of activated prothrombin time at 300 umol/kg, po; type: functional, organism-based
[44] = test system: Mus musculus; experiment: Anticoagulant activity in mouse assessed as increase of thrombin time at 150 and 300 umol/kg, ip measured after 120 mins; type: functional, organism-based
[45] = test system: Mus musculus; experiment: Anticoagulant activity in ip dosed mouse assessed as increase of activated partial thromboplastin time; type: functional, organism-based

O=S(=O)(O)Oc1ccc(/C=C/c2cc(O)cc(O)c2)cc1
Stability ([1]; 24 h): Stable

O=c1c2ccc(O[C@@H]3O[C@H](COS(=O)(=O)O)[C@@H](OS(=O)(=O)O)[C@H](OS(=O)(=O)O)[C@H]3OS(=O)(=O)O)cc2oc2cc(O[C@@H]3O[C@H](COS(=O)(=O)O)[C@@H](OS(=O)(=O)O)[C@H](OS(=O)(=O)O)[C@H]3OS(=O)(=O)O)ccc12
inhibition [2]: > 50% | inhibition [3]: 88.8% | inhibition [4]: 37% | Activity [5]: 0.61 mM | 2aPTT [6]: 0.06 mM | Activity [7]: Dose-dependent effect | inhibition [8]: inactive | inhibition [9]: 66.3% | Activity [10]: Dose-dependent effect | IC50 [11]: 190 µM | IC50 [12]: 740 µM | Time [13]: 469 s | Time [14]: 114 s | Activity [15]: 51 mm | inhibition [16]: inactive | Activity [17]: Dose-dependent effect | 2PT [18]: 0.71 mM | Activity [19]: 68 degree | Activity [20]: Active

O=c1c2ccc(OS(=O)(=O)O)cc2oc2cc(OS(=O)(=O)O)ccc12
2aPTT [6]: >5 mM | Activity [21]: inactive | fold change (FC) [22]: 1.1 | 2PT [18]: >5 mM | fold change (FC) [23]: 1.3

O=c1c2cc(O)c(O)cc2oc2cc(O)c([C@@H]3O[C@H](COS(=O)(=O)O)[C@@H](OS(=O)(=O)O)[C@H](OS(=O)(=O)O)[C@H]3OS(=O)(=O)O)c(O)c12
2aPTT [6]: 0.39 mM | Activity [7]: Dose-dependent effect | Activity [10]: Dose-dependent effect | Activity [17]: Dose-dependent effect

O=c1c2cc(O)c(O)cc2oc2cc(O)c([C@@H]3O[C@H](CO)[C@@H](O)[C@H](O)[C@H]3O)c(O)c12
Activity [21]: inactive | Activity [22]: inactive | Activity [23]: inactive

O=c1c2ccc(O[C@@H]3O[C@H](CO)[C@@H](O)[C@H](O)[C@H]3O)cc2oc2cc(O[C@@H]3O[C@H](CO)[C@@H](O)[C@H](O)[C@H]3O)ccc12
Activity [21]: inactive | Activity [22]: inactive | Activity [23]: inactive

O=c1c2cc(OS(=O)(=O)O)c(OS(=O)(=O)O)cc2oc2cc(OS(=O)(=O)O)c([C@@H]3O[C@H](COS(=O)(=O)O)[C@@H](OS(=O)(=O)O)[C@H](OS(=O)(=O)O)[C@H]3OS(=O)(=O)O)c(O)c12 [MANGIFERIN HEPTASULFATE]
Activity [24]: Dose-dependent effect | inhibition [2]: > 50% | Stability [25]: Stable | Activity [26]: inactive | Activity [27]: Active | inhibition [3]: 41% | Activity [28]: inactive | Stability [29]: Stable | remaining at 2 h, 10 µM [30]: > 85% | remaining at 2 h, 10 µM [31]: > 85% | inhibition [4]: 37% | Activity [5]: 1.96 mM | 2aPTT [6]: 0.21 mM | Activity [7]: Dose-dependent effect | Activity [32]: 46 U/L | remaining at 2 h, 10 µM [33]: > 85% | Activity [34]: Dose-dependent effect | inhibition [8]: inactive | inhibition [35]: Active | remaining at 2 h, 10 µM [36]: > 85% | remaining at 2 h, 10 µM [37]: > 85% | inhibition [9]: 52.1% | Activity [10]: Dose-dependent effect | IC50 [12]: 970 µM | Time [13]: 247 s | Stability [38]: Stable | Time [14]: 86 s | Activity [15]: 50 mm | Activity [39]: 125 U/L | inhibition [16]: inactive | solubility [40]: soluble | Stability [41]: Stable | Activity [17]: Dose-dependent effect | 2PT [18]: 1.6 mM | Activity [42]: Active | Activity [43]: inactive | Activity [19]: 73 degree | Activity [20]: Active | Activity [44]: Active | Activity [45]: Dose-dependent effect

Oc1ccc(/C=C/c2cc(O)cc(O)c2)cc1 [RESVERATROL]
degraded at 24 h ([1]; RPMI medium, read-out: Drug degradation): 50%
